Tests used:
[1] = system: scutella of wheat cv. Bobwhite MPB26RH and cv. Clearfield Janz; assay: Basal tolerance to IMAZAMOX at callus induction stage; format: cell-based, Triticum aestivum
Experimental: A series of experiments were performed to determine optimal selection conditions for regenerating AHAS edited wheat plants. These experiments were based on testing the basal tolerance to IMAZAMOX™ of the donor wheat line cv. Bobwhite MPB26RH(S653/S653 genotype) at the callus induction, plant regeneration and rooting stages of an established wheat transformation system. Similar experiments were performed to determine the basal tolerance and resistance of cv. Clearfield Janz genotypes carrying the different doses of the S653N mutation; i.e., plants with N653/N653 and S653/S653 genotypes.
The basal tolerance of the donor wheat line cv. Bobwhite MPB26RH and basal resistance of cv. Clearfield Janz (N653/N653) genotype to IMAZAMOX® at the callus induction stage was determined as follows: Scutella of immature zygotic embryos from each wheat line were isolated as described previously and placed in 10 cm PETRI™ dishes containing CIM medium supplemented with 0, 50, 100, 200, 300, 400 and 500 nM IMAZAMOX® respectively. Twenty scutella were placed in each PETRI™ dish. A total of 60 scutella from each of the donor wheat line cv. Bobwhite MPB26RH and cv. […] After incubation at 24° C. in the dark for 4 weeks, the amount of somatic embryogenic callus formation (SEC) at each IMAZAMOX® concentration was recorded. […]

[2] = system: wheat cv. Bobwhite MPB26RH and cv. Clearfield Janz; assay: Basal tolerance to IMAZAMOX at plant regeneration stage; format: in vivo, Triticum aestivum
Experimental: The basal tolerance of the donor wheat line cv. Bobwhite MPB26RH to IMAZAMOX® at the plant regeneration stage was determined as follows: Scutella of immature zygotic embryos from the donor wheat line were isolated as described previously and placed in 10 cm PETRI™ dishes containing CIM medium. Somatic embryogenic callus was allowed to form by incubating at 24° C. in the dark for 4 weeks. The SEC was transferred to 10 cm PETRI™ dishes containing DRM medium supplemented with 0, 100, 200, 300, 400, 500 and 1000 nM IMAZAMOX® respectively. Twenty CIM were placed in each PETRI™ dish. A total of 60 CIM were tested for basal tolerance response at each IMAZAMOX® concentration. After incubation for 2 weeks at 24° C. under a 16/8 (light/dark) hour photoperiod in a growth room, the regeneration response was recorded.
The basal tolerance of the cv. Clearfield Janz (S653/S653) genotype and basal resistance of the cv. Clearfield Janz (N653/N653) genotype to IMAZAMOX® at the plant regeneration stage was determined using a modified approach, as cv. […] Seed for each cv. Clearfield Janz genotype was germinated using the aseptic approach described above for producing wheat mesophyll protoplasts. […] After incubation for 3 weeks at 24° C. under a 16/8 (light/dark) hour photoperiod in a growth room, the growth response was recorded. […]

[3] = system: wheat cv. Bobwhite MPB26RH, wild-type and AHAS(P197S) transgenic events; assay: Basal tolerance to sulfometuron methyl at plant rooting stage; format: in vivo, Triticum aestivum; conditions: wild-type donor wheat line; concentrations higher than 400 nM; 3 weeks
Experimental: The basal tolerance of the wild-type donor wheat line to sulfometuron methyl at the plant rooting stage was determined as follows: Scutella of immature zygotic embryos were isolated and placed in 10 cm PETRI™ dishes containing CIM medium. Somatic embryogenic callus was allowed to form by incubating at 24° C. in the dark for 4 weeks. The SEC was transferred to 10 cm PETRI™ dishes containing DRM medium and incubated for 2 weeks at 24° C. under a 16/8 (light/dark) hour photoperiod to allow plant regeneration to take place. Regenerated plants were transferred to 10 cm PETRI™ dishes containing RM medium supplemented with 0, 100, 200, 250, 300, 400, 500, 1000 and 2000 nM sulfometuron methyl, respectively. Ten regenerated plants were placed in each PETRI™ dish. […] After incubation for 3 weeks at 24° C. under a 16/8 (light/dark) hour photoperiod in a growth room, the root formation response was recorded.
The basal tolerance of transgenic wheat events with randomly integrated, low-copy (≤3) T-DNA expressing the AHAS(P197S) mutation to sulfometuron methyl at the plant rooting stage was determined as follows: Four independent transgenic events were randomly selected and multiplied in vitro by sub-culturing on multiplication medium. […] After incubation for 2 weeks at 24° C. under a 16/8 (light/dark) hour photoperiod in a growth room, the root formation response was recorded.

[4] = system: wheat cv. Bobwhite MPB26RH; assay: Basal tolerance to sulfometuron methyl at plant regeneration stage; format: in vivo, Triticum aestivum; conditions: wild-type cv. Bobwhite MPB26RH; 2000 nM; 2 weeks
Experimental: The basal tolerance of the wild-type donor wheat line to sulfometuron methyl at the plant regeneration stage was determined as follows: Scutella of immature zygotic embryos from the donor wheat line were isolated and placed in 10 cm PETRI™ dishes containing CIM medium. Somatic embryogenic callus was allowed to form by incubating at 24° C. in the dark for 4 weeks. The SEC was transferred to 10 cm PETRI™ dishes containing DRM medium supplemented with 0, 100, 500, 1000, 1500, 2000, 2500 and 3000 nM sulfometuron methyl, respectively. Twenty CIM were placed in each PETRI™ dish. A total of 60 CIM were tested for basal tolerance response at each sulfometuron methyl concentration. After incubation for 2 weeks at 24° C. under a 16/8 (light/dark) hour photoperiod in a growth room, the regeneration response was recorded.

[5] = system: scutella of wheat cv. Bobwhite MPB26RH; assay: Basal tolerance to sulfometuron methyl at callus induction stage; format: cell-based, Triticum aestivum; conditions: 100 nM, 4 weeks
Experimental: A series of experiments were performed to determine optimal selection conditions for regenerating wheat plants expressing the AHAS(P197S) mutation conferring tolerance to sulfonylurea class herbicides. These experiments were based on testing the basal tolerance of the wild-type donor wheat line cv. Bobwhite MPB26RH (P197/P197 genotype, which confers susceptibility to sulfonylureas) at the callus induction, plant regeneration and rooting stages of an established wheat transformation system. Similar experiments were performed to determine the basal tolerance of transgenic cv. Bobwhite MPB26RH events that had randomly integrated T-DNA expressing the AHAS(P197) mutation, which confers tolerance to sulfonylurea selection agents.
The basal tolerance of the wild-type donor wheat line to sulfometuron methyl at the callus induction stage was determined as follows: Scutella of immature zygotic embryos were isolated, as previously described, and placed in 10 cm PETRI™ dishes containing CIM medium supplemented with 0, 100, 500, 1000, 1500 and 2000 nM sulfometuron methyl, respectively. Twenty scutella were placed in each PETRI™ dish. A total of 60 scutella were tested at each sulfometuron methyl concentration. After incubation at 24° C. in the dark for 4 weeks, the amount of somatic embryogenic callus formation (SEC) at each sulfometuron methyl concentration was recorded. […]

| Structure (SMILES) | reduction of SEC formation compared to untreated samples ([1]; cv. Bobwhite MPB26RH, 100 nM, 4 weeks) | callus formation relative to the untreated control ([1]; cv. Clearfield Janz (N653/N653), any concentration tested (50-500 nM)) | reduction of plant regeneration compared to untreated samples ([2]; cv. Bobwhite MPB26RH, 200 nM, 2 weeks) | concentration that had to be exceeded before plant growth was strongly suppressed ([2]; cv. Clearfield Janz (N653/N653), 3 weeks) | root formation compared to untreated samples [3] | reduction of plant regeneration compared to untreated samples [4] | reduction of SEC formation compared to untreated samples [5] |
| --- | --- | --- | --- | --- | --- | --- | --- |
| COCc1cnc(C2=NC(C)(C(C)C)C(=O)N2)c(C(=O)O)c1 (stereo not shown) [IMAZAMOX] | about 70% | unaffected | about 80% | exceeded 2,000 nM |  |  |  |
| COC(=O)c1ccccc1S(=O)(=O)NC(=O)Nc1nc(C)cc(C)n1 [sulfometuron methyl] |  |  |  |  | severely inhibited | about 80% | about 70% |

— patent publication US10174331B2, “Methods and compositions for nuclease-mediated targeted integration of transgenes” (Sangamo BioSciences, Inc., priority 2012, dated 2019)
